Measurements taken from patent US6107288A, “Antiviral nucleoside combination” (priority 1991, dated 2000).
Where “and” joins values, the source holds several entries; their conditions need not be identical. Equal entries are not always repeated. Where two headings read alike, the source gives them in different places.

Test system: HIV
Assay type: cell-based
Description: Combinations according to the invention were tested for anti-HIV activity in an HIV-infected MT4 cell assay as described in Averett, D. R., J. Virol. Methods, 23, 263-276 (1989). The cells were exposed to HIV for one hour prior to addition of antiviral component(s). Components were tested in serial 2.5-fold dilutions. After five days of incubation at 37° C., the cell number was determined. Inhibition of HIV-induced cytopathic effect was calculated, and synergism was determined by FIC plots as described by Elion, Singer, and Hitchings, J. Biol. Chem. 208, 477 (1954).
The fractional inhibitor concentrations (FIC) of zidovudine and cis-1-(2-(hydroxymethyl)-1,3-oxathiolan-5-yl)-5-fluorocytosine were calculated according to the method of Elion et al., supra (Table 1).

For `Nc1nc(=O)n([C@@H]2CS[C@H](CO)O2)cc1F` (relative stereo) [Compound 1, cis1-(2-(hydroxymethyl)-1,3-oxathiolan-5-yl)-5-fluorocytosine], which “Fractional Inhibitor Concentration (FIC)” value is on record?
Its value is 0.48 and 0.38 and 0.31 and 0.26.

Which results are given for `Cc1cn([C@H]2C[C@H](N=[N+]=[N-])[C@@H](CO)O2)c(=O)[nH]c1=O` [Zidovudine, 3'-azido-3'-deoxythymidine]?
Fractional Inhibitor Concentration (FIC) (70% inhibition, combination of zidovudine 0.004 with Compound 1 2.5): 0.018; Fractional Inhibitor Concentration (FIC) (70% inhibition, combination of zidovudine 0.01 with Compound 1 2.0): 0.045; Fractional Inhibitor Concentration (FIC) (70% inhibition, combination of zidovudine 0.0256 with Compound 1 1.6): 0.12; Fractional Inhibitor Concentration (FIC) (70% inhibition, combination of zidovudine 0.06 with Compound 1 1.4): 0.27
